Laboratory results taken from patent publication US20110229411A1, “USE OF P2X7 PATHWAY FOR ASSESSING THE SENSITIVITY OF A SUBJECT TO A CANCER TREATMENT” (INSTITUT GUSTAVE ROUSSY, priority 2008, published 2011).

Experiments:
CT26 cells [1] = assay: Anti-cancer vaccination with dying CT26 cells and rechallenge with live tumor cells; assay type: in vivo, mice; conditions: doxorubicin-treated CT26, rechallenge with live cells seven days later
Protocol: (§1) FIG. 3: Identification of AT P release as a limiting factor of anti-cancer vaccination by dying CT 26 cells. FIG. 3a-b Idem as in FIGS. 1a and b, but using the mouse colon cancer CT26 exposed to doxorubicin. Data of one representative experiment out of three are depicted. FIG. 3. c-d. […] Mice were immunized with PBS or dying CT26 tumor cells. Dying CT26 were first treated with doxorubicin for 24 hours and were then incubated with antimycin A/deoxyglucose (A/D) for 20 min. Cells were washed after A/D exposure and before subcutaneous inoculation (c). Alternatively, dying CT26 were inoculated alone or together with oxiATP (d). Seven days later, mice (15 per group in a total of 3 distinct experiments) were inoculated with live syngeneic tumor cells and tumor growth was monitored. * p<0.05.
Anti cancer vaccination was assessed using a previously described setting (Casares et al., 2005; Obeid et al., 2007). CT26 cells were cultured with either PBS or 20 μM doxorubicin, and MCA205 with either PBS or 1 μM mitoxantrone for 24 h. All these treatments led to ˜50% of Annexin V^+ DAPI^+ cells, as assessed by FACS analysis at 24 hours. After careful washes, cells were resuspended in sterile PBS. […] Tumor growth was then monitored weekly.

[2] = system: T cell priming for IFNγ production; assay: Priming assay: dying EG7 cells injected into the footpad, IFNγ secretion of restimulated popliteal lymph node cells; assay type: in vivo, mice
Protocol: 1.10^6 CT26, EG7, or B16F10 cells were either left untreated or treated with doxorubicin (20 μM) or oxaliplatin (5 μg/ml) for 24 h. Cells were then injected into the footpad of syngenic mice. In some experiments, 20 or 100 μg of IL-1Ra (Anakinra) or 250 ng of recombinant murine IL-1β (or 250 ng of IL-6 or 50 ng of IL-12) was injected along with dying tumor cells into the footpad of mice. Alternatively, DC were cocultured with EG7 cells for 2 hours, followed by the purification of CD11c^+ cells with anti-CD11c mAb coupled to magnetic beads (Miltenyi Biotec, Paris, France) and injection of these purified DC into the footpad. Five days later, gangliocytes from popliteal lymph nodes were harvested, seeded in 96 U-well plates (3.10^5 cells per well), and restimulated with 1 mg/ml OVA protein. Restimulation with MCA205 or CT26 cells was performed using 3×10^4 tumor cells killed by 5 min heating at 42° C. followed by 1 cycle of freezing/thawing in liquid nitrogen. For B16F10, restimulation was achieved using gp100 peptide as previously described (Overwijk et al., 1998). As a positive control of T cell priming, mice were injected with OVA protein (1 mg) (or gp100 for B16F10) and the association of CpG (10 μg) and Poly I:C (5 μg). For CT26 priming experiments, cell lysate plus LPS (250 ng) was used as a positive control. Supernatants were harvested 72 hours later, and IFNγ secretion was assessed by ELISA. Alternatively, cells were stimulated with PMA (10 ng/ml) and ionomycin (1 μg/ml) for 1 h, followed by the addition of brefeldin A (10 μg/ml for 6 h at 37° C.) (Apetoh et al., 2007), surface staining with Abs specific for CD3, CD4 or CD8, fixation and permeabilization (Cytofix/cytoperm kit) and then labeled with antibodies specific for IFNγ. Immunofluorescence was analyzed on a LSRII flow cytometer (BD Biosciences) with FACSDiva software.

[3] = system: T cell priming for IFNγ production; assay: Priming assay with dying CT26 cells, restimulation with CT26 or MCA205 tumor lysate, IFNγ production; assay type: in vivo; conditions: IL-1Ra 100 μg co-inoculated, WT mice
Protocol: FIG. 14: The immunogenicity of cell death requires active IL-1β. Mice were immunized with PBS or dying CT26 tumor cells treated with doxorubicin or freeze thawing and LPS. Dying CT26 were co-inoculated together with IL-1Ra (100 μg) into the […] of WT mice. Five days later, mice (n=5 mice/group) were sacrificed to harvest popliteal lymph nodes for in vitro restimulation with CT26 or MCA205 tumor lysate and assessment of IFNγ production. *p<0.05.
1.10^6 CT26, EG7, or B16F10 cells were either left untreated or treated with doxorubicin (20 μM) or oxaliplatin (5 μg/ml) for 24 h. Cells were then injected into the footpad of syngenic mice. In some experiments, 20 or 100 μg of IL-1Ra (Anakinra) or 250 ng of recombinant murine IL-1β (or 250 ng of IL-6 or 50 ng of IL-12) was injected along with dying tumor cells into the footpad of mice. Alternatively, DC were cocultured with EG7 cells for 2 hours, followed by the purification of CD11c^+ cells with anti-CD11c mAb coupled to magnetic beads (Miltenyi Biotec, Paris, France) and injection of these purified DC into the footpad. […] Supernatants were harvested 72 hours later, and IFNγ secretion was assessed by ELISA. […] Immunofluorescence was analyzed on a LSRII flow cytometer (BD Biosciences) with FACSDiva software.

EL4 thymoma tumors = assay: Chemotherapy of EL4 tumors established in mice; assay type: in vivo; conditions: co-treatment, data not shown
Protocol: (§2) FIG. 17. The anti-cancer activity of oxaliplatin depends on P2X7 and the NALP3 inflammasome. FIG. 17a,b,c. Therapeutic efficacy of oxaliplatin on established tumors depends on the integrity of the immune system on the P2X7/NALP3/casp-1 axis. EL4 thymoma tumors were established in syngenic mice bearing the indicated genotypes (a-c) or injected with anti-CD8 antibody (a). When the tumor reached 70-90mm^2 in size, mice were either left untreated or were treated with oxaliplatin. Each treatment group included 5-6 mice (X±SEM), and each experiment was repeated three times with similar results. * p<0.05. d. Caspase 1 is required for the immune response promoted by oxaliplatin chemotherapy. EG7 tumors established in the thigh were treated with one systemic injection of oxaliplatin. Inguinal lymph node cells were harvested 5 days later, and the gangliocytes were restimulated in vitro. IFNγ secretion was assessed by ELISA. Results (means of triplicates ±SEM, n=3) are representative of one typical experiment out of three. ^*P<0.01. FIG. 17d. The efficacy of anthracyclines against established colon cancer is dependent on IL-1β. CT26 tumors established for 10 days in WT mice were treated with one local injection of doxorubicin in the absence or presence of neutralizing anti-IL-1β Ab (n=10/group, *p<0.05). FIG. 17e. A single-nucleotide polymorphism (SNP) in P2X7 (rs3751143) affects the long-term efficacy of conventional anti-cancer therapy in breast cancer patients. Comparative Kaplan-Meier estimates of time to metastasis in two groups of patients bearing the normal (Glu496Glu) or loss-of-function (Glu496Ala) P2X7 alleles. The time to metastatic progression was analyzed in 225 women with non-metastatic breast cancer who received adjuvant chemotherapy with anthracylines.
Wild type or loss-of-function C57BL/6 mice were injected s.c. with 10^6 EL4 cells into the right flank. Alternatively, wild-type BALB/c mice were injected with 5.10^5 CT26 cells into the right flank. Mice were then randomly assigned to treatment groups of 4-6 mice each. The tumor surface was monitored using a caliper. When tumor size reached 70-90 mm^2 for EL4 (9-12 days post-injection) or 60-80 mm^2 for CT26 (8-10 days post-injection), mice received chemotherapy (Apetoh et al., 2007). Mice bearing EL4 tumors were injected with oxaliplatin (5 mg/kg i.p), while mice bearing CT26 tumors were injected with doxorubicin (50 μl, 4 mM i.t). In some experiments, CT26 tumor-bearing mice received two injections (on day 0 and day 2 after the commencement of chemotherapeutic treatment) of IL-1Ra (McIntyre et al., 1991) (100 μg), anti-IL-1 antibody (100 μg) or hamster serum as a control.

CT26 tumors = assay: Chemotherapy of CT26 tumors established in mice; assay type: in vivo; conditions: doxorubicin i.t.; 100 μg on day 0 and day 2, WT mice
Protocol: as §2, with “The efficacy of anthracyclines against established colon cancer is dependent on IL-1β. CT26 tumors established for 10 days in WT mice were treated with one local injection of doxorubicin in the absence or presence of neutralizing anti-IL-1β Ab (n=10/group, *p<0.05). FIG. 17e. A single-nucleotide polymorphism (SNP) in P2X7 (rs3751143) affects the long-term efficacy of conventional anti-cancer therapy in breast cancer patients. Comparative Kaplan-Meier estimates of time to metastasis in two groups of patients bearing the normal (Glu496Glu) or loss-of-function (Glu496Ala) P2X7 alleles.” left out
Wild type or loss-of-function C57BL/6 mice were injected s.c. with 10^6 EL4 cells into the right flank. […] The tumor surface was monitored using a caliper. […]

CT26 colon cancer cells = assay: ATP assays on doxorubicin-treated tumor cells; assay type: cell-based, mouse; conditions: CT26, doxorubicin 20 μM
Protocol: as §1
Plates were read in a Fluostar luminometer (BMG Labtech).

CT26 cells [4] = assay: Cell death induction for vaccination, FACS analysis of Annexin V+ DAPI+ cells; assay type: cell-based, mouse; conditions: CT26, 20 μM doxorubicin, 24 hours
Protocol: Anti cancer vaccination was assessed using a previously described setting (Casares et al., 2005; Obeid et al., 2007). CT26 cells were cultured with either PBS or 20 μM doxorubicin, and MCA205 with either PBS or 1 μM mitoxantrone for 24 h. All these treatments led to ˜50% of Annexin V^+ DAPI^+ cells, as assessed by FACS analysis at 24 hours. After careful washes, cells were resuspended in sterile PBS. CT26 cells were incubated in the presence or in the absence of antimycin A and deoxyglucose (2 μg/ml and 30 mM, respectively) for 20 min, or in the presence or in the absence of Oxi-ATP ([…]). After 3 washes, 3×10^6 dying CT26 cells (or 3×10^5 MCA205 cells) were injected subcutaneously into the left flank of mice. In some experiments, 100 μg of IL-1Ra (Anakinra) was injected along with the dying cells. Seven days later, mice were rechallenged into the right flank with 5×10^5 live CT26 cells (or, alternatively, 3.10^4 live MCA205 cells). Tumor growth was then monitored weekly.

CD3+ CD8+ T cells = assay: In vitro stimulation of CD8+ T-cells with anti-CD3 and anti-CD28 mAb plus cytokines; assay type: cell-based, mouse; conditions: CD3 plus CD28 cross-linking; 10 ng/ml IL-12p70, 100 ng/ml IL-1β, IL-6, TNFα
Protocol: (§3) FIG. 15. IL-1β-dependent CTL priming by dying tumor cells in vitro and in vivo. FIG. 15a. MyD88 is required at the level of the host but not that of the APC. DC from WT mice were first loaded with antigen (OVA holoprotein with C/P adjuvant, live or oxaliplatin-treated EG7 cells) and then injected into the footpad of into WT or MyD88^−/− recipients (n=6 mice/group). Five days later, the local immune response was measured as in FIG. 2d,e. Results of one typical experiment out of three are depicted. FIG. 15b. Casp-1 and IL-1β-dependent OT-I priming in vitro. The differentiation of IFNγ producing CD8^+ OT-1 cells was induced by incubating naïve OVA-specific TCR transgenic OT-1 lymphocytes with syngeneic BM-DC (derived from WT or Casp-1^−/− mice) that were loaded with oxaliplatin-treated EG7 for 2 days in vitro. […] Exogenous addition of rIL-1β (100 ng/ml) or IL-12 (10 ng/ml) to cocultures of Casp-1^−/− DC loaded with dying tumor cells and incubated with OT1 restored T cell priming. […] FIG. 15c. Specific and direct polarizing effects of IL-1β on T lymphocytes in vitro. Purified CD3^+ CD8^+ T cells derived from naïve WT mice were stimulated with anti-CD3 and anti-CD28 mAb for 5 days in the presence of the indicated cytokines (10 ng/ml for IL-12p70, 100 ng/ml for IL-1β, IL-6 and TNFα) -and IFNγ production was measured as in FIG. 3b. FIG. 15d. […]

OT-1 CD8+ T cells = assay: In vitro stimulation of OT-1 cells by BM-DC loaded with oxaliplatin-treated EG7; assay type: cell-based, mouse; conditions: rIL-1β 100 ng/ml or IL-12 10 ng/ml added to cocultures
Protocol: as §3

With Nc1ncnc2c1ncn2[C@@H](C=O)O[C@@H](C=O)COP(=O)(O)OP(=O)(O)OP(=O)(O)O [oxiATP, 2′,3′-dialdehyde derivative of ATP] the “efficacy of vaccination with dying tumor cells” value (CT26 cells [1]) was “prevent the efficacy of vaccination”, the “T cell priming triggered by OVA protein plus adjuvant” value ([2]; OVA with PolyI:C+CpG in presence of oxiATP) was “did not affect T cell priming” and the “T cell priming by oxaliplatin-treated EG7 cells” value ([2]; cells admixed with oxiATP, footpad, C57Bl/6 mice) was “abolished T cell priming”.

For “IL-1Ra: recombinant IL-1 receptor antagonist, Kineret Anakinra (Amgen)”, the “T cell priming in vivo by oxaliplatin-treated EG7 cells (IFNγ after restimulation with OVA)” value ([2]; IL-1Ra co-injected into the footpad) was “failed to prime T cells in vivo”, the “cytoplasmic IFNγ staining of CD3+CD8+ T lymphocytes” value ([2]; IL-1Ra co-injected, restimulation with PMA-ionomycin, flow cytometry) was “failed to stain positively for cytoplasmic IFNγ” and the “tumor-specific IFNγ response of T cells primed by dying CT26 cells” value [3] was “abolished”. The “effect on the response of EL4 tumors to oxaliplatin” value (EL4 thymoma tumors) was “blunted the response” and the “effect on the response of CT26 tumors to anthracyclines” value (CT26 tumors) was “blunted the response”.

For COc1cccc2c1C(=O)c1c(O)c3c(c(O)c1C2=O)C[C@@](O)(C(=O)CO)C[C@@H]3O[C@H]1C[C@H](N)[C@H](O)[C@H](C)O1 [doxorubicin], the “release of ATP” value (CT26 colon cancer cells) was “released ATP” and the “Annexin V+ DAPI+ cells” value (CT26 cells [4]) was roughly 50%.

B1: IL-1β: recombinant mouse IL-1β from R&D Systems (protein)
chain: VPIRQLHYRLRDEQQKSLVLSDPYELKALHLNGQNINQQVIFSMSFVQGEPSNDKIPVALGLKGKNLYLSCVMKDGTPTLQLESVDPKQYPKKKMEKRFVFNKIEVKSKVEFESAEFPNWYISTSQAEHKPVFLGNNSGQDIIDFTMESVSS
B1 was tested, and the “IFNγ production by naive CD3+CD8+ splenic T cells” value (CD3+ CD8+ T cells) was “failed to produce IFNγ, unless IL-113”, the “T cell priming in Nalp3−/− or Casp1−/− mice” value ([2]; cytokine co-injected with oxaliplatin-treated EG7: rIL-1β 250 ng, rIL-12 50 ng, rIL-6 250 ng per footpad) was “restored deficient T cell priming” and the “priming capacity of Casp-1−/− DC for OT-1 cells (IFNγ)” value (OT-1 CD8+ T cells) was “restored the priming capacity”.
